Assay results: ChEMBL document CHEMBL1124454, “2,3-Dihydro-5-benzofuranols as antioxidant-based inhibitors of leukotriene biosynthesis” (J Med Chem, 1989); call rule not given here

Tests used:
physchem = conditions: octanol/water
Description: Partition coefficient (logP)

Homo sapiens [1] = species: Homo sapiens; assay: cells
Homo sapiens [2] = species: Homo sapiens; assay: Inhibitory activity against Leukotriene (LTB4) biosynthesis in isolated human polymorphonuclear cells (PMNs); not active; type: functional

SMILES	logP (physchem)	IC50 (Homo sapiens [1]) [nM]	IC50 (Homo sapiens [2])
Cc1c(O)c(CCCSc2ccccc2)cc2c1CCO2	5.9	19	
CC(C)c1cc2c(cc1O)CCO2	3.3	300	
Oc1ccc2c(c1CCCSCc1cccnc1)CCO2	3.3	2000	
Oc1ccc2c(c1CCCNc1ccccc1)CCO2	3.8	1400	
CCCc1c(O)ccc2c1CCO2	3.4	1000	
Oc1cc2c(cc1Sc1cccnc1)OCC2	2.8	1200	
CCCc1cc2c(c(C(C)(C)C)c1O)CCO2	5.4	430	
CC(C)(C)c1c(O)ccc2c1CCO2	3.7	730	
Oc1cc2c(cc1Sc1ccccn1)OCC2	2.8	2800	
OCCCc1cc2c(cc1O)CCO2	1.4	10000	
CCCc1cc2c(cc1O)CCO2	3.4	290	
OCCCc1c(O)ccc2c1CCO2	1.4	33000	
CCCc1cc2c(c(Br)c1O)CCO2	4.3	65	
CC(C)(C)c1cc2c(cc1O)CCO2	3.7	790	
Oc1cc2c(cc1Sc1ccncc1)OCC2	2.8	2600	
N#CCCCc1cc2c(cc1O)CCO2	1.8	1400	
C=CCc1cc2c(c(C)c1O)CCO2	3.5	130	
C=CCc1c(O)ccc2c1CCO2	2.9	2100	
Oc1cc2c(cc1Sc1ccccc1)OCC2	4.1	140	
Oc1ccc2c(c1CCCSc1ccccc1)CCO2	4.9	120	
Oc1cc2c(cc1SCc1ccccc1)OCC2	4.1	110	
Oc1cc2c(cc1SCCc1ccccc1)OCC2	4.4	66	
Oc1ccc2c(c1)CCO2	1.7	4000	
C=CCc1cc2c(cc1O)CCO2	2.9	480	
CCCc1cc2c(c(C)c1O)CCO2	4.1	160	
O=C1CCN(c2ccccc2)N1 [PHENIDONE]		8000	

Other lines, results leading:

logP (physchem)	IC50 (Homo sapiens [1]) [nM]	IC50 (Homo sapiens [2])	SMILES
3.7	71		COC(=O)c1ccc(OCCCOc2cc3c(cc2O)CCO3)cc1
4.3	57		Oc1cc2c(cc1CCCOc1ccccc1)OCC2
3.5	60		OCCc1cccc(OCCCc2cc3c(cc2O)CCO3)c1
4.9	28		Oc1cc2c(cc1SCCCc1ccccc1)OCC2
4.5	28		Oc1cc2c(cc1CCCOc1ccc(F)cc1)OCC2
2.6	470		CCCOc1cc2c(cc1O)CCO2
4.3	290		Oc1ccc2c(c1CCCOc1ccccc1)CCO2
3.1	180		CCCCOc1cc2c(cc1O)CCO2
4.2	51		Oc1cc2c(cc1OCCCc1ccccc1)OCC2
1.3	3200		COCCOc1cc2c(cc1O)CCO2
		Not Active	O=C(O)CCCc1cc2c(cc1O)CCO2
3.9	280		Oc1cc2c(cc1Cc1ccccc1)OCC2
3.7	420		Oc1cc2c(cc1Oc1ccccc1)OCC2
3.7	68		COC(=O)c1cccc(OCCCOc2cc3c(cc2O)CCO3)c1
3.5	340		OCCc1ccc(OCCCc2cc3c(cc2O)CCO3)cc1
3.4	320		Oc1cc2c(cc1OCCCOc1ccccc1)OCC2
3.1	120		COC(=O)Cc1ccc(OCCCOc2cc3c(cc2O)CCO3)cc1
6	9		CCCc1ccc(OCCCc2cc3c(cc2O)CCO3)cc1
4.9	19		Oc1cc2c(cc1CCCSc1ccccc1)OCC2
	5100		O=C(O)c1cccc(OCCCOc2cc3c(cc2O)CCO3)c1
5.1	55		Oc1cc2c(cc1CCCOc1ccc(Cl)cc1)OCC2
3.3	280		Oc1cc2c(cc1CCCSCc1cccnc1)OCC2
3.8	140		Oc1cc2c(cc1CCCNc1ccccc1)OCC2
3.4	47		COC(=O)c1ccccc1OCCCOc1cc2c(cc1O)CCO2
		Not Active	O=C(O)Cc1ccc(OCCCOc2cc3c(cc2O)CCO3)cc1
3.5	290		OCCc1ccccc1OCCCc1cc2c(cc1O)CCO2
		Not Active	O=C(O)c1ccccc1OCCCOc1cc2c(cc1O)CCO2
